Experimental data reported in patent US6784155B1, “Inhibitor and stimulator of stem cell proliferation and uses thereof” (Wellstat Therapeutics Corporation, priority 1996, dated 2004).
No end group written: not given here.

Assays:
[1] = test system: CFU-MIX; test: CFU-MIX cycling assay in vitro (Ara C kill); assay type: cell-based, mouse
Protocol: A similar assay can be performed in vitro, using the cycling status of CFU-MIX instead of CFU-S. The assay is performed as described above for the CFU-S assay except that cytosine arabinoside (Ara C, 30 micrograms/ml) is used as the cycle-specific toxic agent instead of high dose tritiated thymidine (see B. I. Lord in Haemopoiesis—A Practical Approach, N. G. Testa and G. Molineux (Eds.), IRL Press 1993; Pragnell et al. in Culture of Hematopoietic Cells, R. I. Freshney, I. B. Pragnell and M. G. Freshney (Eds.), Wiley Liss 1994) and a mouse strain with high endogenous cycling rates (Balb/c) is used instead of testosterone-treated BDFI mice.
(§1) 24 hours later (Day 1), varying doses of peptide 43-55 or vehicle were injected i.v. Bone marrow was harvested on Day 2 and the […] cycling assay conducted as in Example 14. Specifically, mice were sacrificed and single cell bone marrow suspensions prepared from the femurs. The cells were washed once and the concentration adjusted to 5×10^6 cells/ml in Fischer medium. For each test condition, one milliliter of cells was added to each of two polypropylene tubes. The tubes were incubated at 37° C. for 3 hours without (“Control”) or with (“Experimental”) the appropriate concentration of test substance. At the end of the incubation, 30 μg/ml of cytosine arabinoside (“Ara C” (Sigma)) was added to half of the tubes and the same volume of Fischer's medium was added to the others. The tubes were incubated for a further 1 hour at 37° C., after which they were placed on ice and washed twice with cold Fischer medium.
(§2) The cells were readjusted to 5×10^4-10^6/ml in Fischer's medium and 0.5 ml of cell suspension added to 5 ml of Methocult M3430 methylcellulose medium (Stem Cell Technologies, Vancouver, British Columbia). The mixture was vigorously mixed with a vortex and 1 ml was dispensed into each of five 35 mm dishes. The 35 mm dishes were in turn placed in a covered 150 mm dish with one open 35 mm dish containing sterile water. CFU-MIX colonies were counted with the use of an inverted microscope after 7 days of incubation at 37° C.
Differences in colony number between the tubes treated with medium versus the tubes treated with Ara C represent the percentage of cells in cycle under that condition according to the formula:
a=Number of CFU-MIX from tube incubated with medium alone
b=Number of CFU-MIX from tube incubated with Ara C

[2] = test system: CFU-MIX; test: CFU-MIX cycling assay after in vivo injection into testosterone or 5FU treated mice; parameters: species or system mouse
Protocol: In order to test the ability of purified porcine hemoglobin chains to act in vivo, BDF1 mice were injected with testosterone propionate as described in Example 1. Twenty four hours later, mice received 500 ng of either pINPROL, porcine hemoglobin alpha chain (purified from peripheral red blood cells as in FIG. 21), porcine beta chain (purified from peripheral red blood cells as in FIG. 21) or the equivalent volume of carrier intravenously. Forty eight hours later the bone marrow from each mouse was harvested and the CFU-MIX assay conducted as described in Example 14.
To assess the stem cell inhibitory activity of peptide 43-55 in vivo, B6D2 F1 mice were pre-treated with testosterone propionate as described in Example 1 or with 5FU. Specifically, testosterone propionate (100 mg/kg body weight) was injected i.p. on Day 0 into mice. Alternatively, mice were injected on Day 0 with 5FU ([…] body weight).
as §1, §2
Differences in colony number between the tubes treated with medium versus the tubes treated with Ara C represent the percentage of cells in cycle under that condition according to the formula: […]

[3] = test system: CFU-GEMM; test: CFU-GEMM cycling assay, human umbilical cord blood cells; assay type: cell-based
Protocol: In order to investigate the ability of purified INPROL from porcine bone marrow to affect cycling on human progenitors, umbilical cord blood cells were obtained. Either the total mononuclear cell fraction obtained after separation on Ficoll or the CD34^+ fraction obtained after fractionation on anti-CD34 affinity columns (CellPro Inc.) was used. Cells were incubated for 48 hours in vitro in the presence of interleukin 3 (IL-3) and stem cell factor (SCF) (100 ng/ml each) in order to ensure that the early stem cells were in cycle. After this preincubation, cycling assays were conducted as described in Example 14 for the mouse except that CFU-GEMM (instead of CFU-MIX) were counted on Day 18 after plating.
The human cord blood CFU-GEMM cycling assay was conducted as in Example 19. Specifically, mononuclear cells were isolated from human umbilical cord blood cells and adjusted to 24×10^4 cells/ml in IMDM tissue culture medium supplemented with 10% FBS, 100 ng/ml kit ligand and 100 ng/ml human IL-3. The cells were incubated for 48 hours at 37° C.
After incubation, cells were washed and resuspended in serun-free NDM at a concentration of 10^6 cells/ml. One ml of cells was added to each of two polypropylene tubes per condition and the cycling assay conducted as in Example 24 for mouse bone marrow. After the Ara C incubation cells were washed with cold NDM and adjusted to 10,000 to 20,000 cells per 0.5 ml IMDM and mixed with 5 ml Methocult H4433 (Stem Cell Technologies). Alternatively, Methocult H4435 methylcellulose medium (Stem Cell Technologies) was used in which case the cell concentration was adjusted to 2500-5000 cells per 0.5 ml IMDM. The cells were plated as in Example 24 and CFU-GEMM colonies scored on days 14-18.

[4] = test system: CFU-GEMM; test: CFU-GEMM cycling assay, human bone marrow cells; assay type: cell-based
Protocol: To assess the bioactivity of recombinant p1-97, the CFU-GEMM cycling assay was used as in Example 18:
CD34^+ stem cells were obtained from Poietic Technologies (Gaithersburg, MD) after purification from human bone marrow by means of a CelUPro column. Cells were incubated for 48 hours with kit ligand and IL-3 and used in a CFU-GEMM cycling assay in Example 26.

[5] = test system: CFU-GEMM; test: CFU-GEMM cycling assay, mobilized human peripheral blood; assay type: cell-based
Protocol: Peripheral blood was obtained from breast cancer patients undergoing peripheral stem cell mobilization with cyclophosphamide and G-CSF according to standard protocols. Red blood cells were removed with FicolU Hypaque (cells were diluted 1:1 with IMDM and 20 ml layered on top of 16 ml Ficoll and centrifuged at 800 g for 30 minutes; mononuclear cells were removed from the interphase and washed twice in IMDM). In one case mononuclear cells were stored frozen in liquid nitrogen before assay. The mononuclear cells were plated for the CFU-GEMM cycling assay as in Example 26 except that 2.5-5×10^5 cells were plated per dish.

[6] = Table 32, cord blood mononuclear cells, 100 ng/ml
[7] = Table 33, CD34+ stem cells from human bone marrow, concentration printed only as (ng/ml)

In the case of “FPHFDLSHGSAQV [Peptide 43-55, amino acids 43-55 of human alpha hemoglobin]”, the “% Kill” value ([1]; Table 17, 1 ng/ml) is reported as 11%, the “% Kill” value ([1]; Table 17, 10 ng/ml) is reported as 18% and the “% Kill” value ([1]; Table 17, 100 ng/ml) is reported as 2%. The “% Kill” value ([1]; Table 18, 100 ng/ml) was 5%, the “% Kill” value ([1]; Table 24, 1 ng/ml) was 8% and the “% Kill” value ([1]; Table 27, Balb/c bone marrow, 1 ng/ml) was 8%. For the same substance, the “% Kill” value ([1]; Table 28, 10 ng/ml, alone) was 6%, the “% Kill” value ([1]; Table 31, 10 ng/ml, alone) was 8% and the “% Kill” value ([2]; Table 22, testosterone-pretreated animals, 0.5 ng i.v. per 20 gram mouse) was 0%. The “% Kill” value ([2]; Table 23, 5FU-pretreated animals, 0.5 ng i.v. per 20 gram mouse) was 3%, the “% Kill” value ([3]; Table 32, cord blood mononuclear cells, 1 ng/ml) was 20% and the “% Kill” value ([3]; Table 32, cord blood mononuclear cells, 10 ng) was 12%. For the same substance, the “% Kill” value [3, 6] was 5%, the “% Kill” value [4, 7] was 0% and the “% Kill” value ([5]; Table 35, Patient #2, 10 ng/ml) was 0%. For the same substance, the “% Kill” value ([5]; Table 36, Patient #3, cells stored frozen before assay, 0.1 ng/ml) was 23%, the “% Kill” value ([5]; Table 36, Patient #3, cells stored frozen before assay, 1.0 ng/ml) was 0% and the “% Kill” value ([5]; Table 36, Patient #3, cells stored frozen before assay, 10 ng/ml) was 15%.
For “Human alpha chain: purified, non-recombinant human alpha hemoglobin chain isolated by reversed-phase HPLC”, the “% Kill” value ([1]; Table 11, bone marrow from Balb/c mice, 100 ng/ml) was −1%, the “% Kill” value ([1]; Table 13, bone marrow from Balb/c mice, 100 ng/ml) was 19% and the “% Kill” value ([1]; Table 20, Balb/c bone marrow, 100 ng/ml) was 12%. The “% Kill” value ([1]; Table 25, Balb/c bone marrow, 100 ng/ml) was 0%, the “% Kill” value ([1]; Table 28, 100 ng/ml, alone) was 0% and the “% Kill” value ([1]; Table 30, 100 ng/ml) was 0%. For the same substance, the “% Kill” value ([1]; Table 31, 100 ng/ml, alone) was 0%, the “% Kill” value ([2]; Table 14, testosterone-treated BDF1 mice, 500 ng/mouse) was −22% and the “% Kill” value ([2]; Table 22, testosterone-pretreated animals, 500 ng i.v. per 20 gram mouse) was 13%. The “% Kill” value ([2]; Table 23, 5FU-pretreated animals, 500 ng i.v. per 20 gram mouse) was 0%, the “% Kill” value ([3]; Table 16, cord blood mononuclear cells, 100 ng/ml) was −23% and the “% Kill” value [3, 6] was 0%. For the same substance, the “% Kill” value ([4]; Table 21, human bone marrow mononuclear cells, 100 ng/ml) was 11%, the “% Kill” value [4, 7] was 0% and the “% Kill” value ([5]; Table 34, Patient #1, 100 ng/ml) was 0%. For the same substance, the “% Kill” value ([5]; Table 35, Patient #2, concentration printed only as (ng/ml)) was 2%.
